Literature values as cited in patent publication US20200138845A1, “Combination Drug Therapy” (ViiV Healthcare Company, priority 2017, published 2020).

Tested on: HIV-1 strains
Conditions: antiviral activity against a broad range of HIV-1 strains

C[C@H]1CO[C@@H]2Cn3cc(C(=O)NCc4ccc(F)cc4F)c(=O)c(O)c3C(=O)N12 [Cabotegravir, cabotegravir]
potency: subnanomolar
